Laboratory results: patent EP0430108A2, “Use of oxetanocin-G for the treatment of varicella-zoster virus infections” (priority 1989, dated 1991)

Experiments:
YS strain (TK^+ -VZV) = experiment: Anti-VZV activity, plaque reduction in human fetal pulmonary cells, YS strain; format: cell-based, varicella-zoster virus; settings: nonresistant strain of VZV (YS, TK^+); human fetal pulmonary cell monolayer, approximately 20 PFU, 5 days at 37 °C, plaque count
Description: (§1) Next, the anti-VZV effect of OXT-G will be described in detail by reference to the following Test Example. Anti-VZV activity: • (1) Determination method A monolayer of human fetal pulmonary cells, which had been grown in Eagle minimum essential medium containing 10 % of newborn calf serum, 60 µg/ml of kanamycin and 0.075 % of NaHCO₃, (used as a growth medium) in a 96-well microplate, was inoculated with approximately 20 PFU of various viruses and incubated at 37 °C for 2 hours. After 0.1 ml of 2 % newborn calf serum containing OXT-G was freshly supplied, the incubation was continued at 37 °C for 5 days. Plaques in each well were counted under a microscope and the ratio (%) thereof to the plaque count of a control (no addition) was calculated to prepare a graph. Based on the graph, the median effective dose (ED₅₀) was determined. The employed virus stains were as follows: YS strain: TK^+ strain (carrying thymidine kinase) isolated from a patient of varicella (TK^+ -VZV). […] Thus it is expected as an excellent anti-VZV agent.

YSR strain (TK^- -VZV) = experiment: Anti-VZV activity, plaque reduction in human fetal pulmonary cells, YSR strain; format: cell-based, varicella-zoster virus; settings: resistant strain of VZV (YSR, TK^-, drug-resistant); human fetal pulmonary cell monolayer, approximately 20 PFU, 5 days at 37 °C, plaque count
Description: as §1

[1] = Single-dose intraperitoneal toxicity in the mouse; format: in vivo; settings: 400 mg/kg intraperitoneally, once
Excerpt: OXT-G and a pharmacologically acceptable salt thereof are each characterized by a low toxicity and a low cumulative toxicity upon repeated administration.

Compound: Nc1nc2c(ncn2C2OC(CO)C2CO)c(=O)[nH]1 (stereo not drawn) [OXT-G, oxetanocin-G]
- antiviral effects (YS strain (TK^+ -VZV)): excellent antiviral effects
- antiviral effects (YSR strain (TK^- -VZV)): excellent antiviral effects
- symptom of intoxication [1]: no symptom of intoxication could be observed
